Usually IC50 stands for the concentration at which inhibition is half-maximal. The low end stands for inhibition by little substance, the high end for a need for much substance. As usually defined, the inhibition is the relative decrease from the control value, in per cent. A low value points to a response near the control.

In one experiment the target is T1, C-C chemokine receptor type 5 (Homo sapiens, UniProt P51681). Briefly: Binding affinity towards human CCR5 receptor in Chinese hamster ovary (CHO) cells using [125I]-MIP-1 alpha as radioligand. Format: cell-based.
Target sequence in this assay (P51681 whole entry): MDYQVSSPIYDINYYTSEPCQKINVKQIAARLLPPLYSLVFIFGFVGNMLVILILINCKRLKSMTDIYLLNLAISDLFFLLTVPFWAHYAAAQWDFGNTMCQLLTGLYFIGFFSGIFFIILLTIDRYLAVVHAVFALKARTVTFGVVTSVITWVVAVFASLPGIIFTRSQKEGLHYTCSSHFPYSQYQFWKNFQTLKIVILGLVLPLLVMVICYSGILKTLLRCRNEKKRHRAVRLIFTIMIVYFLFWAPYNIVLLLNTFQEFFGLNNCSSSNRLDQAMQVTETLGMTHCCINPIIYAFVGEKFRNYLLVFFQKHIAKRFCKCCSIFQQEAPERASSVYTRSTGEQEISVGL
For `CN(C[C@@H](CCN1CCC2(CC1)C[S+]([O-])c1ccccc12)c1ccc(Cl)c(Cl)c1)S(=O)(=O)c1ccc(Cl)cc1` (stereo partly drawn), the IC50 came out at 0.04 µM. In other words, the double-digit nanomolar range. On the same count and under the same terms, with `CN(C[C@@H](CCN1CCC2(CC1)C[S+]([O-])c1ccccc12)c1ccc(Cl)c(Cl)c1)C(=O)Cc1ccccc1` (stereo partly drawn) the figure was 0.64 µM; with `CN(C[C@@H](CCN1CCC2(CC1)C[S+]([O-])c1ccccc12)c1ccc(Cl)c(Cl)c1)S(=O)(=O)c1cccc2cccnc12` (stereo partly drawn), 0.09 µM; with `CN(C[C@@H](CCN1CCC2(CC1)C[S+]([O-])c1ccccc12)c1ccc(Cl)c(Cl)c1)S(=O)(=O)c1ccccc1` (stereo partly drawn), 0.035 µM.

The compound `CN(C[C@@H](CCN1CCC2(CC1)C[S+]([O-])c1ccccc12)c1ccc(Cl)c(Cl)c1)S(=O)(=O)c1ccccc1Cl` (stereo partly drawn) had a 50% inhibitory concentration (IC50) of 0.08 µM. Still for that read-out and setting: for `CN(C[C@@H](CCN1CCC2(CC1)C[S+]([O-])c1ccccc12)c1ccc(Cl)c(Cl)c1)S(=O)(=O)c1cccs1` (stereo partly drawn) the value was 0.06 µM; for `CN(C[C@@H](CCN1CCC2(CC1)C[S+]([O-])c1ccccc12)c1ccc(Cl)c(Cl)c1)S(=O)(=O)c1cnc2ccccc2c1` (stereo partly drawn), 0.12 µM; for `CCN(C[C@@H](CCN1CCC2(CC1)C[S+]([O-])c1ccccc12)c1ccc(Cl)c(Cl)c1)S(=O)(=O)c1ccccc1` (stereo partly drawn), 0.13 µM. `CN(C[C@@H](CCN1CCC2(CC1)C[S+]([O-])c1ccccc12)c1ccc(Cl)c(Cl)c1)S(=O)(=O)c1ccc2ccccc2c1` (stereo partly drawn): the IC50 came out at 0.06 µM. Compound `CN(C[C@@H](CCN1CCC2(CC1)CS(=O)(=O)c1ccccc12)c1ccc(Cl)c(Cl)c1)S(=O)(=O)c1ccc([N+](=O)[O-])cc1` registered an IC50 of 0.06 µM.

In turn, `CN(Cc1ccccc1)C[C@@H](CCN1CCC2(CC1)CS(=O)(=O)c1ccccc12)c1ccc(Cl)c(Cl)c1` yielded a concentration for half-maximal inhibition (IC50) of 1 µM. As for `CN(C[C@@H](CCN1CCC2(CC1)CS(=O)(=O)c1ccccc12)c1ccc(Cl)c(Cl)c1)S(=O)(=O)c1cccc([N+](=O)[O-])c1`, the IC50 stood at 0.15 µM. Against the preceding compound, the IC50 is about 6.7-fold lower. Turning to `CN(C[C@@H](CCN1CCC2(CC1)C[S+]([O-])c1ccccc12)c1ccc(Cl)c(Cl)c1)C(=O)Oc1ccccc1` (stereo partly drawn), the IC50 was 0.78 µM. Take `CN(C[C@@H](CCN1CCC2(CC1)C[S+]([O-])c1ccccc12)c1ccc(Cl)c(Cl)c1)S(=O)(=O)c1ccc(-c2ccccc2)cc1` (stereo partly drawn): the 50% inhibitory concentration (IC50) is 0.04 µM. The compound `CN(C[C@@H](CCN1CCC2(CC1)C[S+]([O-])c1ccccc12)c1ccc(Cl)c(Cl)c1)S(=O)(=O)c1cccnc1` (stereo partly drawn) had an IC50 of 0.1 µM. In turn, `CN(C[C@@H](CCN1CCC2(CC1)C[S+]([O-])c1ccccc12)c1ccc(Cl)c(Cl)c1)S(=O)(=O)C1CCCCC1` (stereo partly drawn) came in with an IC50 of 0.1 µM. On to `CCCCCCCCS(=O)(=O)N(C)C[C@@H](CCN1CCC2(CC1)C[S+]([O-])c1ccccc12)c1ccc(Cl)c(Cl)c1` (stereo partly drawn), for which the IC50 came out at 1.4 µM. `CN(C[C@@H](CCN1CCC2(CC1)C[S+]([O-])c1ccccc12)c1ccc(Cl)c(Cl)c1)S(=O)(=O)c1ccc2[nH]ccc2c1` (stereo partly drawn) displayed an IC50 of 0.07 µM. Turning to `CN(C[C@@H](CCN1CCC2(CC1)C[S+]([O-])c1ccccc12)c1ccc(Cl)c(Cl)c1)S(=O)(=O)c1cccc(Cl)c1` (stereo partly drawn), the IC50 turned out to be 0.07 µM. In turn, `CN(C[C@@H](CCN1CCC2(CC1)C[S+]([O-])c1ccccc12)c1ccc(Cl)c(Cl)c1)S(=O)(=O)c1cn(C)cn1` (stereo partly drawn) registered an IC50 of 0.34 µM. Against the preceding compound, the IC50 is about 4.9-fold higher.

Compound `CN(C[C@@H](CCN1CCC2(CC1)CS(=O)(=O)c1ccccc12)c1ccc(Cl)c(Cl)c1)S(=O)(=O)c1cccs1` yielded an IC50 of 0.12 µM. This IC50 lies about 2.8-fold lower than the previous one. Consider `CN(C[C@@H](CCN1CCC2(CC1)CS(=O)(=O)c1ccccc12)c1ccc(Cl)c(Cl)c1)S(=O)(=O)c1ccccc1`, for which the IC50 worked out at 0.1 µM. Compound `CN(C[C@@H](CCN1CCC2(CC1)CSc1ccccc12)c1ccc(Cl)c(Cl)c1)S(=O)(=O)c1ccccc1` gave an IC50 of 1 µM. The compound `O=S(=O)(NC[C@@H](CCN1CCC2(CC1)C[S+]([O-])c1ccccc12)c1ccc(Cl)c(Cl)c1)c1ccccc1` (stereo partly drawn) came in with a half-maximal inhibitory concentration (IC50) of 0.23 µM. Against the preceding compound, the IC50 is about 4.3-fold lower. The compound `CN(C)S(=O)(=O)N(C)C[C@@H](CCN1CCC2(CC1)C[S+]([O-])c1ccccc12)c1ccc(Cl)c(Cl)c1` (stereo partly drawn) returned an IC50 of 0.34 µM.

`CN(C[C@@H](CCN1CCC2(CC1)C[S+]([O-])c1ccccc12)c1ccc(Cl)c(Cl)c1)S(=O)(=O)Cc1ccccc1` (stereo partly drawn) registered an IC50 of 0.59 µM. Turning to `CCN(C[C@@H](CCN1CCC2(CC1)CSc1ccccc12)c1ccc(Cl)c(Cl)c1)S(=O)(=O)c1ccccc1`, the 50% inhibitory concentration (IC50) was 10 µM. As to `CN(C[C@@H](CCN1CCC2(CC1)C[S+]([O-])c1ccccc12)c1ccc(Cl)c(Cl)c1)S(=O)(=O)c1cccc2ccccc12` (stereo partly drawn), the 50% inhibitory concentration (IC50) was 0.36 µM. In the case of `CN(C[C@@H](CCN1CCC2(CC1)C[S+]([O-])c1ccccc12)c1ccc(Cl)c(Cl)c1)S(=O)(=O)C1CCCC1` (stereo partly drawn), the IC50 came out at 0.1 µM. This IC50 is about 3.6-fold lower than that of the compound before. Consider `O=S(=O)(NC[C@@H](CCN1CCC2(CC1)CSc1ccccc12)c1ccc(Cl)c(Cl)c1)c1ccccc1`, for which the IC50 is 1.6 µM. The same measure, in the same setting: with `CN(C[C@@H](CCN1CCC2(CC1)C[S+]([O-])c1ccccc12)c1ccc(Cl)c(Cl)c1)S(C)(=O)=O` (stereo partly drawn) the figure was 0.85 µM; with `CCN(C[C@@H](CCN1CCC2(CC1)CS(=O)(=O)c1ccccc12)c1ccc(Cl)c(Cl)c1)S(=O)(=O)c1ccccc1`, 0.16 µM. In turn, `COc1ccc(S(=O)(=O)N(C)C[C@@H](CCN2CCC3(CC2)C[S+]([O-])c2ccccc23)c2ccc(Cl)c(Cl)c2)cc1` (stereo partly drawn) yielded a half-maximal inhibitory concentration (IC50) of 0.04 µM.

A further experiment addresses T1, C-C chemokine receptor type 5. In words: (§1) Binding affinity towards human CCR5 receptor in Chinese hamster ovary (CHO) cells using [125I]-MIP-1 alpha as radioligand at a concentration of 4000 nM. Format: cell-based.
Target sequence in this assay (P51681 whole entry): as above
Compound `CN(C[C@@H](CCN1CCC2(CC1)C[S+]([O-])c1ccccc12)c1ccc(Cl)c(Cl)c1)S(=O)(=O)c1ccsc1` (stereo partly drawn) yielded an IC50 of more than 4 µM.

The next experiment has the same target. Briefly: Binding affinity towards human CCR5 receptor in Chinese hamster ovary (CHO) cells using [125I]-MIP-1 alpha as radioligand at a concentration of 1000 nM. It is filed as cell-based.
Target sequence in this assay (P51681 whole entry, looked up): as the sequence (P51681 whole entry) above
With `CN(C[C@@H](CCN1CCC2(CC1)C[S+]([O-])c1ccccc12)c1ccc(Cl)c(Cl)c1)C(=O)OC(C)(C)C` (stereo partly drawn), the inhibition amounted to 35%. `CN(Cc1ccccc1)C[C@@H](CCN1CCC2(CC1)C[S+]([O-])c1ccccc12)c1ccc(Cl)c(Cl)c1` (stereo partly drawn) returned an inhibition of 40%.

For the next experiment the target is unchanged. Briefly: Binding affinity towards human CCR5 receptor in Chinese hamster ovary (CHO) cells using [125I]-MIP-1 alpha as radioligand at a concentration of 10000 nM. Format: cell-based.
Target sequence in this assay (P51681 whole entry, looked up): as the sequence (P51681 whole entry) above
On to `CN(C[C@@H](CCN1CCC2(CC1)C[S+]([O-])c1ccccc12)c1ccc(Cl)c(Cl)c1)C(=O)Nc1ccccc1` (stereo partly drawn), for which the inhibition stood at 69%.

As for `CN(C[C@@H](CCN1CCC2(CC1)C[S+]([O-])c1ccccc12)c1ccc(Cl)c(Cl)c1)C(=O)N(C)c1ccccc1` (stereo partly drawn), the inhibition was 73%.

The target is the same in a further experiment. The description is as §1. It is filed as cell-based.
Target sequence in this assay (P51681 whole entry, looked up): as the sequence (P51681 whole entry) above
For the compound `CN(C[C@@H](CCN1CCC2(CC1)C[S+]([O-])c1ccccc12)c1ccc(Cl)c(Cl)c1)S(=O)(=O)c1ccsc1` (stereo partly drawn), the inhibition is 20%. Compound `CN(C[C@@H](CCN1CCC2(CC1)C[S+]([O-])c1ccccc12)c1ccc(Cl)c(Cl)c1)C(=O)c1ccccc1` (stereo partly drawn) returned an inhibition of 22%.

With `CNC[C@@H](CCN1CCC2(CC1)C[S+]([O-])c1ccccc12)c1ccc(Cl)c(Cl)c1` (stereo partly drawn), the inhibition was 0%. `CN(C[C@@H](CCN1CCC2(CC1)CSc1ccccc12)c1ccc(Cl)c(Cl)c1)C(=O)c1ccccc1` returned an inhibition of 0%. `CN(C[C@@H](CCN1CCC2(CC1)CS(=O)(=O)c1ccccc12)c1ccc(Cl)c(Cl)c1)C(=O)c1ccccc1`: the inhibition came out at 2%.

For the origin of these results see ChEMBL document CHEMBL1133795, “Antagonists of the human CCR5 receptor as anti-HIV-1 agents. part 1: discovery and initial structure-activity relationships for 1 -amino-2-phenyl-4-(piperidin-1-yl)butanes” (Bioorg Med Chem Lett, 2001).
